Reference: patent publication US8852928B2, “LexA-based chemical-inducible gene expression system for use in transgenic animals” (Temasek Life Sciences Laboratory Limited, priority 2007, dated 2014)

Columns and labels:
[1] = target: T1, LexPR transactivator (Homo sapiens, UniProt P06401); assay: Time required to switch off EGFP reporter expression after mifepristone withdrawal; assay type: in vivo, zebrafish; parameters: key to Reporter expression, RU486 incubation / Reporter expression after RU486 withdrawal / Reporter expression, continuous induction (time of RU486 incubation): +: Fluorescence signal is similar to the control.; ±: Fluorescence signal is obviously weaker that in control.; −: No EGFP fluorescence (except autofluorescence)observed using the fluorescent stereomicroscope
T1 construct: expressed in transfected cells; host or cells: germline-transgenic zebrafish (Danio rerio) carrying the Ds transposon driver cassette pDs(krt8:LPR-LOP:G4) or derivatives
T1 sequence (P06401 640-914): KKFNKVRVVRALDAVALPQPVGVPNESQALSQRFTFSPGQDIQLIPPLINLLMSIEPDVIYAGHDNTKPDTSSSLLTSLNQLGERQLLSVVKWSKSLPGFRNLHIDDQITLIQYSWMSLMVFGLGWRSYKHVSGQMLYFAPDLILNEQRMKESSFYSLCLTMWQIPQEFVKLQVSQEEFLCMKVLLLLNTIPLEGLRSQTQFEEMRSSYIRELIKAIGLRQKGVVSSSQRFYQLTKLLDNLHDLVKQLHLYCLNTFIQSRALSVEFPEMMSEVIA
Text: To avoid confusion, the corresponding developmental times are indicated. A Nikon SMZ1600 fluorescent stereomicroscope was used for rough estimation of the EGFP fluorescence.

[2] = test system: zebrafish development; assay: Side effects on development of LexPR transgenic fish upon induction; assay type: in vivo
Text: FIG. 13b: Control wild type fish. FIG. 13c: Transgenic F2 embryos harboring the LexPR driver-reporter cassette described in this manuscript.

[3] = target: T1, LexPR transactivator; assay: Mifepristone-induced EGFP reporter fluorescence in LexPR driver-reporter transgenic fish; assay type: in vivo, zebrafish
Text: Generating transgenic fish using Ac/Ds transposon system: Transgenic fish carrying insertions of the driver and effector constructs containing Ds cis-required sequences (as described herein) were generated as previously described (Emelyanov et al., 2006). 5-10 pg of plasmid DNA was co-injected into zebrafish embryos (yolk center) with 25-50 pg of in vitro synthesized transposase mRNA at the 1-2-cell stage. […] Only the lines that segregated as a single locus (produced 1:1 ratio when outcrossed to nontransgenic fish) were selected.

[4] = target: T1, LexPR transactivator; assay: RT-PCR detection of EGFP transcript after mifepristone withdrawal; assay type: in vivo, zebrafish; settings: 5 days after withdrawal; 12 hours induction with 1 μM

Reporter expression after RU486 withdrawal ([1]; 100 nM, 1 hour RU486 incubation, 48 h after withdrawal, 85hpf): − | Reporter expression after RU486 withdrawal ([1]; 100 nM, 1 hour RU486 incubation, 72 h after withdrawal, 109hpf): − | Reporter expression after RU486 withdrawal ([1]; 100 nM, 1 hour RU486 incubation, 96 h after withdrawal, 133hpf): − | Reporter expression after RU486 withdrawal ([1]; 100 nM, 1 hour RU486 incubation, 120 h after withdrawal, 157hpf): − | Reporter expression after RU486 withdrawal ([1]; 100 nM, 1 hour RU486 incubation, 144 h after withdrawal, 181hpf): − | Minimal time after RU486 withdrawal to turn off the reporter expression ([1]; 100 nM, 1 hour induction): 2 days | Reporter expression, RU486 incubation ([1]; 100 nM, 12 hours RU486 incubation - withdrawal, at 12 h incubation, 48hpf): + | Reporter expression after RU486 withdrawal ([1]; 100 nM, 12 hours RU486 incubation, 12 h after withdrawal, 60hpf): + | Reporter expression after RU486 withdrawal ([1]; 100 nM, 12 hours RU486 incubation, 24 h after withdrawal, 72hpf): ± | Reporter expression after RU486 withdrawal ([1]; 100 nM, 12 hours RU486 incubation, 48 h after withdrawal, 96hpf): ± | Reporter expression after RU486 withdrawal ([1]; 100 nM, 12 hours RU486 incubation, 72 h after withdrawal, 120hpf): − | Reporter expression after RU486 withdrawal ([1]; 100 nM, 12 hours RU486 incubation, 96 h after withdrawal, 144hpf): − | Reporter expression after RU486 withdrawal ([1]; 100 nM, 12 hours RU486 incubation, 120 h after withdrawal, 168hpf): − | Reporter expression after RU486 withdrawal ([1]; 100 nM, 12 hours RU486 incubation, 144 h after withdrawal, 192hpf): − | Minimal time after RU486 withdrawal to turn off the reporter expression ([1]; 100 nM, 12 hours induction): 3 days | Reporter expression, continuous induction (time of RU486 incubation) ([1]; 100 nM, 24-156 h incubation, 60-192 hpf): + | Reporter expression, continuous induction (time of RU486 incubation) ([1]; 100 nM, 1 h incubation): − | Reporter expression, continuous induction (time of RU486 incubation) ([1]; 100 nM, 12 h incubation): + | Reporter expression, continuous induction (time of RU486 incubation) ([1]; 100 nM, 13 h incubation, 49hpf): + | Reporter expression, continuous induction (time of RU486 incubation) ([1]; 100 nM, 24 h incubation, 60hpf): + | Reporter expression, RU486 incubation ([1]; 1 μM, 1 hour RU486 incubation - withdrawal, at 1 h incubation, 37hpf): − | Reporter expression after RU486 withdrawal ([1]; 1 μM, 1 hour RU486 incubation, 12 h after withdrawal, 49hpf): + | Reporter expression after RU486 withdrawal ([1]; 1 μM, 1 hour RU486 incubation, 24 h after withdrawal, 61hpf): + | Reporter expression after RU486 withdrawal ([1]; 1 μM, 1 hour RU486 incubation, 48 h after withdrawal, 85hpf): + | Reporter expression after RU486 withdrawal ([1]; 1 μM, 1 hour RU486 incubation, 72 h after withdrawal, 109hpf): ± | Reporter expression after RU486 withdrawal ([1]; 1 μM, 1 hour RU486 incubation, 96 h after withdrawal, 133hpf): ± | Reporter expression after RU486 withdrawal ([1]; 1 μM, 1 hour RU486 incubation, 120 h after withdrawal, 157hpf): − | Reporter expression after RU486 withdrawal ([1]; 1 μM, 1 hour RU486 incubation, 144 h after withdrawal, 181hpf): − | Minimal time after RU486 withdrawal to turn off the reporter expression ([1]; 1 μM, 1 hour induction): 5 days | Reporter expression, RU486 incubation ([1]; 1 μM, 12 hours RU486 incubation - withdrawal, at 12 h incubation, 48hpf): + | Reporter expression after RU486 withdrawal ([1]; 1 μM, 12 hours RU486 incubation, 12 h after withdrawal, 60hpf): + | Reporter expression after RU486 withdrawal ([1]; 1 μM, 12 hours RU486 incubation, 24 h after withdrawal, 72hpf): + | Reporter expression after RU486 withdrawal ([1]; 1 μM, 12 hours RU486 incubation, 48 h after withdrawal, 96hpf): + | Reporter expression after RU486 withdrawal ([1]; 1 μM, 12 hours RU486 incubation, 72 h after withdrawal, 120hpf): ± | Reporter expression after RU486 withdrawal ([1]; 1 μM, 12 hours RU486 incubation, 96 h after withdrawal, 144hpf): ± | Reporter expression after RU486 withdrawal ([1]; 1 μM, 12 hours RU486 incubation, 120 h after withdrawal, 168hpf): ± | Reporter expression after RU486 withdrawal ([1]; 1 μM, 12 hours RU486 incubation, 144 h after withdrawal, 192hpf): − | Minimal time after RU486 withdrawal to turn off the reporter expression ([1]; 1 μM, 12 hours induction): 6 days | Reporter expression, continuous induction (time of RU486 incubation) ([1]; 1 μM, 24-156 h incubation, 60-192 hpf): + | Reporter expression, continuous induction (time of RU486 incubation) ([1]; 1 μM, 1 h incubation): − | Reporter expression, continuous induction (time of RU486 incubation) ([1]; 1 μM, 12 h incubation): + | Reporter expression, continuous induction (time of RU486 incubation) ([1]; 1 μM, 13 h incubation, 49hpf): + | Reporter expression, continuous induction (time of RU486 incubation) ([1]; 1 μM, 24 h incubation, 60hpf): + | Duration of EGFP fluorescence in mifepristone-free water ([1]; following 12 hours treatment with 1 μM): 5 days | Reporter expression at lowest inducible concentration ([3]; 1 nM): significantly weaker reporter expression | EGFP expression induced ([3]; 10 nM, after 24 hours of incubation): Strong EGFP expression | Time until EGFP fluorescence was observed after adding mifepristone ([3]; 1 μM and 100 nM final concentration in growth water): 6 to 9 h | Lowest inducible concentration ([3]; EGFP reporter, growth water): 1 nM | Concentration required for effective transcription induction ([3]; in the growth water): 0.01 to 1 µM | EGFP transcript by RT-PCR after withdrawal [4]: can be detected
SMILES: CC#C[C@]1(O)CC[C@H]2[C@@H]3CCC4=CC(=O)CCC4=C3[C@@H](c3ccc(N(C)C)cc3)C[C@@]21C [mifepristone]
Effect on embryo development and cell morphology, LexPR driver-reporter F2 embryos ([2]; 1 μM in the growth water 10 hpf onwards): does not affect embryo development and morphology of the EGFP-positive cells | Side effects on zebrafish development ([2]; 10 μM at 1-cell stage, LexPR system): did not observe obvious side effects
